Results from patent publication US20080176261A1, “Colorimetric Substrate and Methods for Detecting Poly(ADP-ribose) Polymerase Activity including PARP Enzymes PARP-1, VPARP, and Tankyrase-1” (THE BOARD OF TRUSTEES OF THE UNIVERSITY OF ILLINOIS, priority 2007, published 2008).
Where two headings read alike, the source gives them in different places. Values belong to the molecule of their own block, whether it stands above or below them.

Legend:
PARP-1 [1] = target: T1, PARP-1 (Homo sapiens, UniProt P09874); design: purchased Trevigen; conditions: PARP-1 literature, natural β-NAD+ substrate; cited from earlier work
tankyrase-1 [2] = target: T2, tankyrase-1 (Homo sapiens, UniProt O95271); conditions: tankyrase-1 literature, β-NAD+ as substrate; cited from earlier work
T2 sequence (O95271 1-1327): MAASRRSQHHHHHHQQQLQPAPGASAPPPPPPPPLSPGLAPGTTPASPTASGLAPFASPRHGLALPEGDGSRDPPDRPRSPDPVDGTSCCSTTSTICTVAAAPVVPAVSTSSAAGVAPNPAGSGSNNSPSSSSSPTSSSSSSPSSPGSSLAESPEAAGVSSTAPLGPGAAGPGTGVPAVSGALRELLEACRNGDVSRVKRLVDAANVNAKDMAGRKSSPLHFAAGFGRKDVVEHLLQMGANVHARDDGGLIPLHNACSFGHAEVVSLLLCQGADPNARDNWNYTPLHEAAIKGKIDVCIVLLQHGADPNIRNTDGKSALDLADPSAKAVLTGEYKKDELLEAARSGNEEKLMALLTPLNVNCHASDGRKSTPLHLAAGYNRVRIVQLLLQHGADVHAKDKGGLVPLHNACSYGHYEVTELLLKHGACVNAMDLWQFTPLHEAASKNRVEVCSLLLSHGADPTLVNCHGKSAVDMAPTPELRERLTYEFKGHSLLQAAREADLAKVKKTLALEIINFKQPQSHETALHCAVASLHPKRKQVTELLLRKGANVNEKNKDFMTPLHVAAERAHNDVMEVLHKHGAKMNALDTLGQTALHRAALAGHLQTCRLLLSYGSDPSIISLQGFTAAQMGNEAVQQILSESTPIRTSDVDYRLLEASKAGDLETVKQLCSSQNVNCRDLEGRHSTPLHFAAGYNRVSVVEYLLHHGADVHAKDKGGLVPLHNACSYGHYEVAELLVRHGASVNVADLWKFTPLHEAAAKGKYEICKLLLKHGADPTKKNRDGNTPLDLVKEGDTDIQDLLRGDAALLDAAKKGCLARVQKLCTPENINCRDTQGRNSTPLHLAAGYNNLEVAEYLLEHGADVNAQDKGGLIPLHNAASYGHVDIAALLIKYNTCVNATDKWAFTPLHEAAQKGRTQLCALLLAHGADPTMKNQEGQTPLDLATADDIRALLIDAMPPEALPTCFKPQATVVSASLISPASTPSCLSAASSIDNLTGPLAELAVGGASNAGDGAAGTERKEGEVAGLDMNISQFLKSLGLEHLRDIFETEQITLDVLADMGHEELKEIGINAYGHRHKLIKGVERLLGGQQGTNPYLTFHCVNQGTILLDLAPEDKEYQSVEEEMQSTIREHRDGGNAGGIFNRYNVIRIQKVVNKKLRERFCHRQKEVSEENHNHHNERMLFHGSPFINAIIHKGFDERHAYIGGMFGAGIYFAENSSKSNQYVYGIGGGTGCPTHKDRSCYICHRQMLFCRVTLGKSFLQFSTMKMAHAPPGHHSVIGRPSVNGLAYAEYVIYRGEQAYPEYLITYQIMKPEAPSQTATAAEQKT

[3] = tested on: T3, Nc1ncnc2c1ncn2[C@@H]1O[C@H](COP(=O)(O)OP(=O)(O)OC[C@H]2O[C@@H](Oc3ccc([N+](=O)[O-])cc3)C(O)C2O)C(O)C1O; test: Continuous colorimetric PARP kinetic assay with ADP-ribose-pNP, PARP-1; assay type: biochemical; conditions: other: PARP-1 activated with DNase digested DNA; substrate ADP-ribose-pNP; 405 nm; pH 8.0
T3 construct: purchased Trevigen
Protocol: (§1) With the calorimetric substrate ADP-ribose-pNP in hand, a continuous calorimetric assay for PARP activity was developed and the kinetic parameters for three PARP isozymes were determined. In a 96-well plate, a range of concentrations of ADP-ribose-pNP in PARP assay buffer were incubated with either PARP-1 (DNase digested DNA was added to activate PARP-1), tankyrase-1 (refers to “active domain,” see Supporting Information), or VPARP (also refers to the “active domain”), and the optical density at 405 nm was measured every 60 seconds over a 2 hour time period. Change in absorbance was assessed in triplicate, and blanks containing 0 to 700 μM ADP-ribose-pNP in PARP assay buffer were also measured over the same time period. The absorbance of a range of p-nitrophenol concentrations was determined at 405 nm, and the slope of this calibration curve (see Supporting Information) was used to convert the absorbencies to moles of product generated; in this way the kinetic parameters for PARP-1, tankyrase-1, and VPARP were calculated (see Table 1 and FIG. 2).
Preparation of damaged DNA for PARP-1. 500 μL of Herringsperm DNA (10 mg/ml) was added to 100 mL DNase buffer (400 mM Tris-HCl, 100 mM MgSO4, and 10 mM CaCl2, pH 8.0), along with 50 μL of DNase (1 unit/mL). This solution was first incubated at 37° C. for 1 minute and then heated at 90° C. for 20 minutes to inactivate the DNase. Damaged DNA was used without any further purification.
Kinetics of PARP-1. A 160 μL volume of PARP-1 (0.45 mg/mL) was premixed with 262.4 μL of the damaged herringsperm DNA and 2777.6 μl of PARP assay buffer. This mixture (known as activated PARP in assay buffer) was allowed to equilibrate on ice for 4 hours. The ADP-ribose-pNP colorimetric substrate was diluted from a 5000 μM stock in PARP assay buffer directly into the wells of a 96 well plate. […] The plate was then read on a SpectraMax plus UV/Vis plate reader (Molecular Devices), at 405 nm for 2 hours, reading once every minute with mixing between reads.
(§2) Data analysis. […] Graphs were analyzed using Table Curve 2D.

bovine serum albumin = bovine serum albumin (Bos taurus, UniProt P02769); test: Control experiment with BSA (non-specific substrate cleavage); assay type: biochemical; conditions: 20 μM BSA, monitored 2 hours
Protocol: While exact kinetic parameters for PARP-1 can vary with the assay used, for PARP-1 the KM value with ADP-ribose-pNP is consistent with that of the natural β-NAD^+ substrate, while the Vmax is approximately 100 fold lower with the calorimetric substrate (see Table 1). […] To our knowledge, no data is available on the kinetic parameters of VPARP with β-NAD^+.
Control experiment with BSA. To determine that substrate cleavage is specific to the PARP family of enzymes, 16 μL of BSA was added to 81.5 μL of PARP assay buffer in a 96 well plate so that the final concentration was 20 μM in protein. The experiment was performed in triplicate along with controls that contained PARP assay buffer only. To both the wells containing only buffer or buffer and BSA, 2.5 μL of a 10 mM stock of the substrate was added to start the reaction. The plate was monitored at 405 nm for 2 hours.

PARP-1 [4] = target: T1, PARP-1; test: Continuous colorimetric PARP kinetic assay with ADP-ribose-pNP, PARP-1; assay type: biochemical; design: purchased Trevigen
Protocol: as §1
Preparation of damaged DNA for PARP-1. […]
Kinetics of PARP-1. […] The plate was then read on a SpectraMax plus UV/Vis plate reader (Molecular Devices), at 405 nm for 2 hours, reading once every minute with mixing between reads.
as §2

VPARP = target: T4, VPARP (Homo sapiens, UniProt Q9UKK3); test: Continuous colorimetric PARP kinetic assay with ADP-ribose-pNP, VPARP active domain; assay type: biochemical; conditions: substrate ADP-ribose-pNP, 405 nm
T4 construct: The plasmid with the catalytic domain of VPARP, pET28b-p193cat; made in house; host or cells: E. coli Rosetta
T4 sequence (Q9UKK3 369-573 limits assumed): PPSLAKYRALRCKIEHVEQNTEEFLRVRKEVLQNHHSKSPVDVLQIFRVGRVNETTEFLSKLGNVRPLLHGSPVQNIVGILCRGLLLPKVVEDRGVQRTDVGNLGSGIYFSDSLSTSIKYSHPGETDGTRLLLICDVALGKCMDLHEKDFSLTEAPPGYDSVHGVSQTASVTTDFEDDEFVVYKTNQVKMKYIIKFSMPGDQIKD
Protocol: (§3) With the calorimetric substrate ADP-ribose-pNP in hand, a continuous calorimetric assay for PARP activity was developed and the kinetic parameters for three PARP isozymes were determined. In a 96-well plate, a range of concentrations of ADP-ribose-pNP in PARP assay buffer were incubated with either PARP-1 (DNase digested DNA was added to activate PARP-1), tankyrase-1 (refers to “active domain,” see Supporting Information), or VPARP (also refers to the “active domain”), and the optical density at 405 nm was measured every 60 seconds over a 2 hour time period. Change in absorbance was assessed in triplicate, and blanks containing 0 to 700 μM ADP-ribose-pNP in PARP assay buffer were also measured over the same time period. The absorbance of a range of p-nitrophenol concentrations was determined at 405 nm, and the slope of this calibration curve (see Supporting Information) was used to convert the absorbencies to moles of product generated; in this way the kinetic parameters for PARP-1, tankyrase-1, and VPARP were calculated (see Table 1 and FIG. 2). […]
(§4) The plate was divided in half with protein added to half the wells and the other half serving as blanks containing only PARP assay buffer and substrate. […] The plate was then read on a SpectraMax plus 384 UV/Vis plate reader (Molecular Devices), at 405 nm for 2 hours with observations performed once every minute. […]

tankyrase-1 [5] = target: T5, tankyrase-1 (Homo sapiens, UniProt O95271); test: Continuous colorimetric PARP kinetic assay with ADP-ribose-pNP, tankyrase-1 active domain; assay type: biochemical
T5 construct: The SAM and PARP domain of tankyrase was subcloned into pGEX-5X-1; made in house; host or cells: E. coli Rosetta
T5 sequence (O95271 1030-1327): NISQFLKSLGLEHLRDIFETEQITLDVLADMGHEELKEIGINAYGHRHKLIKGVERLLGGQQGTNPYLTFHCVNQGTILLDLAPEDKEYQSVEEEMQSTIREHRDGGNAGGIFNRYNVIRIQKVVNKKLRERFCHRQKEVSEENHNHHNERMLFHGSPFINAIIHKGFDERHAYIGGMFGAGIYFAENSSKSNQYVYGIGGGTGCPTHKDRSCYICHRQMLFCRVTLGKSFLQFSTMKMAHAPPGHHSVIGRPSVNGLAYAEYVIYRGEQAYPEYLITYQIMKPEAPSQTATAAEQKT
Protocol: as §1
Kinetics of VPARP and Tankyrase-1. The ADP-ribose-pNP colorimetric substrate was diluted from a 10 mM stock in PARP assay buffer to 1142.9 μM. From this stock, dilutions into PARP assay buffer were made in 15×1.7 mL tubes so that the volume was 490 μL. This was enough to perform the experiment in triplicate, with additional wells (no protein) to serve as blanks for each substrate concentration. The concentration of substrate in each tube was made such that 70 μL from each tube could be added to the wells of a 96 well plate. When each well was brought to the final volume of 100 μL, the desired final concentration was reached. See FIG. 2B and FIG. 5B for tank-ad and VPARP substrate concentrations, respectively. Concentrations ranged from 0 to 700 μM with a finer distribution at lower substrate concentrations.
The plate was divided in half with protein added to half the wells and the other half serving as blanks containing only PARP assay buffer and substrate. After adding 70 μL of substrate from each tube to 3 wells on the protein side or 3 wells of the blank side, 30 μL of PARP assay buffer was added to all the wells of the blank side. Next, 30 μL of the enzyme was added to each of the wells on the protein half of the plate to initiate the reaction, with a final concentration of tankyrase per well of 21.8 μM and the final concentration of VPARP per well of 19.8 μM. The plate was then read on a SpectraMax plus 384 UV/Vis plate reader (Molecular Devices), at 405 nm for 2 hours with observations performed once every minute. Mixing was conducted between observations.
as §2

[6] = substrate: Nc1ncnc2c1ncn2[C@@H]1O[C@H](COP(=O)(O)OP(=O)(O)OC[C@H]2O[C@@H](Oc3ccc([N+](=O)[O-])cc3)C(O)C2O)C(O)C1O; test: Continuous colorimetric PARP kinetic assay with ADP-ribose-pNP, VPARP active domain; assay type: biochemical; conditions: other: VPARP active domain; substrate ADP-ribose-pNP; 405 nm
Protocol: as §3, §4

[7] = tankyrase-1, versus literature values
[8] = tankyrase-1 active domain, substrate ADP-ribose-pNP, 405 nm

T1 sequence (P09874 whole entry): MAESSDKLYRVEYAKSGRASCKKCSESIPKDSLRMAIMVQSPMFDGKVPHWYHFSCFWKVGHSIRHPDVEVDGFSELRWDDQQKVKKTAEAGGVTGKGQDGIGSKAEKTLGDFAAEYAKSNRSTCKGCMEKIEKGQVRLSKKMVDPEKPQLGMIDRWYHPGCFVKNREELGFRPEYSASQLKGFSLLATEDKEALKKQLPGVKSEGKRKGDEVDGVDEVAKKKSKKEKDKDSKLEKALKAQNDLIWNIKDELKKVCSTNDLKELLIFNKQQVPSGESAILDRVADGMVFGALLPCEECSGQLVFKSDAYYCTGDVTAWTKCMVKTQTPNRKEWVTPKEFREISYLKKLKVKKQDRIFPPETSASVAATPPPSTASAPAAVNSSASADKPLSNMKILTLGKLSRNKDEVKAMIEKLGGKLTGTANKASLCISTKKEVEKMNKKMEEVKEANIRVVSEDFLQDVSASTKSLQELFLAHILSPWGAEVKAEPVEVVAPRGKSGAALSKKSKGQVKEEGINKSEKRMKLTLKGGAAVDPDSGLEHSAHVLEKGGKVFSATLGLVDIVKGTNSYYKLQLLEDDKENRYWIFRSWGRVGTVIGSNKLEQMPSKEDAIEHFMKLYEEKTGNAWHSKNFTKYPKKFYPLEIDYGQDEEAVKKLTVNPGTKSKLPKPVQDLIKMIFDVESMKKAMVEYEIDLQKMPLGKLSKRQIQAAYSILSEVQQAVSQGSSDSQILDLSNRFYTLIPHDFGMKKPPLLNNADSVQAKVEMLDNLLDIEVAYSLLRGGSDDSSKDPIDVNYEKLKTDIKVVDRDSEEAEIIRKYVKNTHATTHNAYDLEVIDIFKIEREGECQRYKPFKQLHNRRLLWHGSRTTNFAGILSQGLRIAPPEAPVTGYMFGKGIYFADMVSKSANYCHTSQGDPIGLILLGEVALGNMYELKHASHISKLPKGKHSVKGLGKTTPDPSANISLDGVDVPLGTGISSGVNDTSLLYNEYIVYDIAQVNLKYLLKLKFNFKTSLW
bovine serum albumin, sequence (P02769 25-607): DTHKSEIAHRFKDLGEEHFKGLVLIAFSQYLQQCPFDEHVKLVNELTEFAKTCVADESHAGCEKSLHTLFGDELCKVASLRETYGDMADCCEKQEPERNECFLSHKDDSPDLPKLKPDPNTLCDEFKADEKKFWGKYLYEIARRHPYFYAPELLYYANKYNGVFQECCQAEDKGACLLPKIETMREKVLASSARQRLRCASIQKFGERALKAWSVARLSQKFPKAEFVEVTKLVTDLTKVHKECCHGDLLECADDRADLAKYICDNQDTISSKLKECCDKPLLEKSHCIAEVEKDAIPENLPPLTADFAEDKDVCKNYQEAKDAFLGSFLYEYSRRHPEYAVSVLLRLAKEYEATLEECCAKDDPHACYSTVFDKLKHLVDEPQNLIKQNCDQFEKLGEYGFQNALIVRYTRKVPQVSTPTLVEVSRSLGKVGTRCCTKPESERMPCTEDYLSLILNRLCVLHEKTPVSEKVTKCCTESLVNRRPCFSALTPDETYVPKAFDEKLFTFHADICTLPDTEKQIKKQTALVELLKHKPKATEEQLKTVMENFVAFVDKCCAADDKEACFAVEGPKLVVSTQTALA

Molecule: NC(=O)c1ccc[n+]([C@@H]2O[C@H](COP(=O)([O-])OP(=O)(O)OC[C@H]3O[C@@H](n4cnc5c(N)ncnc54)[C@H](O)[C@@H]3O)[C@@H](O)[C@H]2O)c1 [β-NAD^+, nicotinamide adenine dinucleotide]
Km (PARP-1 [1]): 59 to 278 µM
Vmax (PARP-1 [1]): 0.2 to 2.4 µmol/min/mg
kcat (PARP-1 [1]): 0.41 s⁻¹
Km (tankyrase-1 [2]): 1.5 mM
kcat (tankyrase-1 [2]): 0.71 s⁻¹

Molecule: PARP-1 (Homo sapiens)
Km [3]: 151 µM
Vmax [3]: 0.0013 µmol/min/mg
kcat [3]: 0.025 s⁻¹

signal at 405 nm on incubation with bovine serum albumin (bovine serum albumin): no signal
Vmax fold lower with colorimetric substrate than with natural β-NAD+ substrate (PARP-1 [4]; PARP-1, versus literature values): approximately 100 fold
Vmax (PARP-1 [4]; PARP-1 activated with DNase digested DNA, substrate ADP-ribose-pNP, 405 nm): 0.0013 µmol/min/mg
Vmax (VPARP): 2.03e-06 µmol/min/mg
KM fold lower than literature value with β-NAD+ as substrate (tankyrase-1 [5]; [7]): approximately 18 fold
Vmax compared to literature values with β-NAD+ as substrate (tankyrase-1 [5]; [7]): significantly lower
Km (tankyrase-1 [5]; [8]): 82 µM
Vmax (tankyrase-1 [5]; [8]): 1.81e-05 µmol/min/mg
kcat (tankyrase-1 [5]; [8]): 1.88e-05 s⁻¹
Molecule: Nc1ncnc2c1ncn2[C@@H]1O[C@H](COP(=O)(O)OP(=O)(O)OC[C@H]2O[C@@H](Oc3ccc([N+](=O)[O-])cc3)C(O)C2O)C(O)C1O (stereo partly shown) [ADP-ribose-pNP]

B1: VPARP (Homo sapiens) (protein)
chain: T4 sequence (Q9UKK3 369-573 limits assumed)
notes: The plasmid with the catalytic domain of VPARP, pET28b-p193cat; made in house; host or cells: E. coli Rosetta
Km [6]: 46 µM
Vmax [6]: 2.03e-06 µmol/min/mg
